# Like-named read-outs stand apart in the source and are kept apart here.
# Key:
# [1] = ester bond, chlorobenzene
# P. aeruginosa MP-3 = assay: Broth dilution MIC determination (CLSI), P. aeruginosa MP-3; type: cell-based; details: strain MP-3, broth dilution; for MIC: Pseudomonas aeruginosa, MP3
# A. baumannii MP-15 = assay: Broth dilution MIC determination (CLSI), A. baumannii MP-15; type: cell-based; details: strain MP-15, broth dilution; for MIC: Acinetobacter baumannii, MP15, read-out: MIC A. baumanii MP-15
# E. coli MP-4 = assay: Broth dilution MIC determination (CLSI), E. coli MP-4; type: cell-based; details: strain MP-4, broth dilution; for MIC: Escherichia coli, MP4, read-out: MIC E. coli MP-4
# S. aureus MP-12 = assay: Broth dilution MIC determination (CLSI), S. aureus MP-12; type: cell-based; details: strain MP-12, broth dilution; for MIC: Staphylococcus aureus, MP12
# K. pneumoniae MP-546 = assay: Broth dilution MIC determination (CLSI), K. pneumoniae MP-546; type: cell-based; details: strain MP-546, broth dilution; for MIC: Klebsiella pneumoniae, MP546
# K. pneumoniae MP-648 = assay: Broth dilution MIC determination (CLSI), K. pneumoniae MP-648; type: cell-based; details: strain MP-648, broth dilution; for MIC: Klebsiella pneumoniae, MP648
compound,measurement,setting,value
CO[C@]1(C)C[C@@H](C)CN(C(=O)OCc2ccccc2)[C@H](C2CCN(C(=O)OC(C)(C)C)CC2)COC(=O)[C@H](C)C(=O)[C@H](C)[C@H]1O[C@@H]1O[C@H](C)C[C@H](N(C)C)[C@H]1OC(=O)c1ccccc1,"ring closure, yield of all isomers","[1]; from CO[C@](C)(C[C@@H](C)CN(C(=O)OCc1ccccc1)[C@@H](CO)C1CCN(C(=O)OC(C)(C)C)CC1)[C@H](O[C@@H]1O[C@H](C)C[C@H](N(C)C)[C@H]1OC(=O)c1ccccc1)[C@@H](C)C1=C(C)C(=O)OC(C)(C)O1, 3.15 mM, 148.0 °C, 23.0 h",29%
CO[C@]1(C)C[C@@H](C)CN(C)[C@H](c2ccc(Br)cc2)COC(=O)C(C)C(=O)[C@H](C)[C@H]1O[C@@H]1O[C@H](C)C[C@H](N(C)C)[C@H]1OC(=O)c1ccccc1 (some centres unmarked),"ring closure, yield of all isomers","[1]; from CO[C@](C)(C[C@@H](C)CN(C)[C@@H](CO)c1ccc(Br)cc1)[C@H](O[C@@H]1O[C@H](C)C[C@H](N(C)C)[C@H]1OC(=O)c1ccccc1)[C@@H](C)C1=C(C)C(=O)OC(C)(C)O1, 4.0 mM, 165.0 °C, 20.0 h",99%
"CO[C@]1(C)C[C@@H](C)CN(C)[C@H](C2CN(CC3CCCO3)C2)COC(=O)C(C)(C)C(=O)[C@H](C)[C@H]1O[C@@H]1O[C@H](C)C[C@H](N(C)C)[C@H]1O (stereo partly drawn) [Compound 164, (3R,6R,8R,9R,10R)-9-(((2S,3R,4S,6R)-4-(dimethylamino)-3-hydroxy-6-methyltetrahydro-2H-pyran-2-yl)oxy)-8-methoxy-4,6,8,10,12,12-hexamethyl-3-(1-((tetrahydrofuran-2-yl)methyl)azetidin-3-yl)-1-oxa-4-azacyclotridecane-11,13-dione]",MIC,P. aeruginosa MP-3,> 32 µg/mL
same,MIC,A. baumannii MP-15,> 32 µg/mL
same,MIC,E. coli MP-4,< 4 µg/mL
same,MIC,S. aureus MP-12,4 to 32 µg/mL
same,MIC,K. pneumoniae MP-546,< 4 µg/mL
same,MIC,K. pneumoniae MP-648,4 to 32 µg/mL
"CCN(C)[C@H]1C[C@@H]([C@@H]2COC(=O)C(C)(C)C(=O)[C@H](C)[C@@H](O[C@@H]3O[C@H](C)C[C@H](N(C)C)[C@H]3O)[C@](C)(OC)C[C@@H](C)CN2C)C1 [Compound 165, (3R,6R,8R,9R,10R)-9-(((2S,3R,4S,6R)-4-(dimethylamino)-3-hydroxy-6-methyltetrahydro-2H-pyran-2-yl)oxy)-3-((1s,3S)-3-(ethyl(methyl)amino)cyclobutyl)-8-methoxy-4,6,8,10,12,12-hexamethyl-1-oxa-4-azacyclotridecane-11,13-dione]",MIC,P. aeruginosa MP-3,> 32 µg/mL
same,MIC,A. baumannii MP-15,> 32 µg/mL
same,MIC,E. coli MP-4,< 4 µg/mL
same,MIC,S. aureus MP-12,> 32 µg/mL
same,MIC,K. pneumoniae MP-546,4 to 32 µg/mL
same,MIC,K. pneumoniae MP-648,4 to 32 µg/mL
"CO[C@]1(C)C[C@@H](C)CN(C)[C@H](C2CN(C(=O)[C@H]3CCN(C)C3)C2)COC(=O)C(C)(C)C(=O)[C@H](C)[C@H]1O[C@@H]1O[C@H](C)C[C@H](N(C)C)[C@H]1O [Compound 168, (3R,6R,8R,9R,10R)-9-(((2S,3R,4S,6R)-4-(dimethylamino)-3-hydroxy-6-methyltetrahydro-2H-pyran-2-yl)oxy)-8-methoxy-4,6,8,10,12,12-hexamethyl-3-(1-((S)-1-methylpyrrolidine-3-carbonyl)azetidin-3-yl)-1-oxa-4-azacyclotridecane-11,13-dione]",MIC,P. aeruginosa MP-3,> 32 µg/mL
same,MIC,A. baumannii MP-15,> 32 µg/mL
same,MIC,E. coli MP-4,< 4 µg/mL
same,MIC,S. aureus MP-12,4 to 32 µg/mL
same,MIC,K. pneumoniae MP-546,4 to 32 µg/mL
same,MIC,K. pneumoniae MP-648,> 32 µg/mL
"CO[C@]1(C)C[C@@H](C)CN(C)[C@H](C2CN(Cc3ccncc3)C2)COC(=O)C(C)(C)C(=O)[C@H](C)[C@H]1O[C@@H]1O[C@H](C)C[C@H](N(C)C)[C@H]1O [Compound 176, (3R,6R,8R,9R,10R)-9-(((2S,3R,4S,6R)-4-(dimethylamino)-3-hydroxy-6-methyltetrahydro-2H-pyran-2-yl)oxy)-8-methoxy-4,6,8,10,12,12-hexamethyl-3-(1-(pyridin-4-ylmethyl)azetidin-3-yl)-1-oxa-4-azacyclotridecane-11,13-dione]",MIC,P. aeruginosa MP-3,> 32 µg/mL
same,MIC,A. baumannii MP-15,> 32 µg/mL
same,MIC,E. coli MP-4,4 to 32 µg/mL
same,MIC,S. aureus MP-12,4 to 32 µg/mL
same,MIC,K. pneumoniae MP-546,4 to 32 µg/mL
same,MIC,K. pneumoniae MP-648,> 32 µg/mL
"CO[C@]1(C)C[C@@H](C)CN(C)[C@H](C2CN(Cc3cncnc3)C2)COC(=O)C(C)(C)C(=O)[C@H](C)[C@H]1O[C@@H]1O[C@H](C)C[C@H](N(C)C)[C@H]1O [Compound 177, (3R,6R,8R,9R,10R)-9-(((2S,3R,4S,6R)-4-(dimethylamino)-3-hydroxy-6-methyltetrahydro-2H-pyran-2-yl)oxy)-8-methoxy-4,6,8,10,12,12-hexamethyl-3-(1-(pyrimidin-5-ylmethyl)azetidin-3-yl)-1-oxa-4-azacyclotridecane-11,13-dione]",MIC,P. aeruginosa MP-3,> 32 µg/mL
same,MIC,A. baumannii MP-15,> 32 µg/mL
same,MIC,E. coli MP-4,4 to 32 µg/mL
same,MIC,S. aureus MP-12,4 to 32 µg/mL
same,MIC,K. pneumoniae MP-546,4 to 32 µg/mL
same,MIC,K. pneumoniae MP-648,> 32 µg/mL
"CO[C@]1(C)C[C@@H](C)CN(C)[C@H](C2CN(C(=O)CCCN(C)CC(C)C)C2)COC(=O)C(C)(C)C(=O)[C@H](C)[C@H]1O[C@@H]1O[C@H](C)C[C@H](N(C)C)[C@H]1O [Compound 178, (3R,6R,8R,9R,10R)-9-(((2S,3R,4S,6R)-4-(dimethylamino)-3-hydroxy-6-methyltetrahydro-2H-pyran-2-yl)oxy)-3-(1-(4-(isobutyl(methyl)amino)butanoyl)azetidin-3-yl)-8-methoxy-4,6,8,10,12,12-hexamethyl-1-oxa-4-azacyclotridecane-11,13-dione]",MIC,P. aeruginosa MP-3,> 32 µg/mL
same,MIC,A. baumannii MP-15,> 32 µg/mL
same,MIC,E. coli MP-4,< 4 µg/mL
same,MIC,S. aureus MP-12,> 32 µg/mL
same,MIC,K. pneumoniae MP-546,4 to 32 µg/mL
same,MIC,K. pneumoniae MP-648,4 to 32 µg/mL
"CO[C@]1(C)C[C@@H](C)CN(C)[C@H](C2CN(C(=O)[C@H]3CCNC3)C2)COC(=O)C(C)(C)C(=O)[C@H](C)[C@H]1O[C@@H]1O[C@H](C)C[C@H](N(C)C)[C@H]1O [Compound 181, (3R,6R,8R,9R,10R)-9-(((2S,3R,4S,6R)-4-(dimethylamino)-3-hydroxy-6-methyltetrahydro-2H-pyran-2-yl)oxy)-8-methoxy-4,6,8,10,12,12-hexamethyl-3-(1-((S)-pyrrolidine-3-carbonyl)azetidin-3-yl)-1-oxa-4-azacyclotridecane-11,13-dione]",MIC,P. aeruginosa MP-3,> 32 µg/mL
same,MIC,A. baumannii MP-15,> 32 µg/mL
same,MIC,E. coli MP-4,4 to 32 µg/mL
same,MIC,S. aureus MP-12,4 to 32 µg/mL
same,MIC,K. pneumoniae MP-546,> 32 µg/mL
same,MIC,K. pneumoniae MP-648,> 32 µg/mL
"CO[C@]1(C)C[C@@H](C)CN(C)[C@H](C2CN(C(=O)CC(C)(C)CN(C)C)C2)COC(=O)C(C)(C)C(=O)[C@H](C)[C@H]1O[C@@H]1O[C@H](C)C[C@H](N(C)C)[C@H]1O [Compound 183, (3R,6R,8R,9R,10R)-3-(1-(4-(dimethylamino)-3,3-dimethylbutanoyl)azetidin-3-yl)-9-(((2S,3R,4S,6R)-4-(dimethylamino)-3-hydroxy-6-methyltetrahydro-2H-pyran-2-yl)oxy)-8-methoxy-4,6,8,10,12,12-hexamethyl-1-oxa-4-azacyclotridecane-11,13-dione]",MIC,P. aeruginosa MP-3,> 32 µg/mL
same,MIC,A. baumannii MP-15,> 32 µg/mL
same,MIC,E. coli MP-4,< 4 µg/mL
same,MIC,S. aureus MP-12,4 to 32 µg/mL
same,MIC,K. pneumoniae MP-546,4 to 32 µg/mL
same,MIC,K. pneumoniae MP-648,4 to 32 µg/mL
"CO[C@]1(C)C[C@@H](C)CN(C)[C@H](C2CC(N(C)CC(C)C)C2)COC(=O)C(C)(C)C(=O)[C@H](C)[C@H]1O[C@@H]1O[C@H](C)C[C@H](N(C)C)[C@H]1O (stereo partly drawn) [Compound 187, (3R,6R,8R,9R,10R)-9-(((2S,3R,4S,6R)-4-(dimethylamino)-3-hydroxy-6-methyltetrahydro-2H-pyran-2-yl)oxy)-3-((1S,3S)-3-(isobutyl(methyl)amino)cyclobutyl)-8-methoxy-4,6,8,10,12,12-hexamethyl-1-oxa-4-azacyclotridecane-11,13-dione]",MIC P aeruginosa MP-3,P. aeruginosa MP-3,+ (values greater than 32 mg/L)
same,MIC A. baumanii MP-15,A. baumannii MP-15,+ (values greater than 32 mg/L)
same,MIC E. coli MP-4,E. coli MP-4,+++ (values less than or equal to 4 mg/L)
same,MIC S. aureus MP-12,S. aureus MP-12,+ (values greater than 32 mg/L)
same,MIC K. pneumoniae MP-546,K. pneumoniae MP-546,+++ (values less than or equal to 4 mg/L)
same,MIC K. pneumoniae MP-648,K. pneumoniae MP-648,++ (values of greater than 4 mg/L and less than or equal to 32 mg/L)

# — US20220177508A1, “C10-Cyclic Substituted 13-Membered Macrolides and Uses Thereof” (Zikani Therapeutics, Inc., priority 2018, published 2022)
